What was measured:
[1] = Moisture content of bupropion salts by KF; assay type: physicochemical
Procedure: (§1) The eight salts were first evaluated by HPLC, KF, pH and DSC for purity, water content, aqueous pH and possible polymorphs.
(§2) The salts were analysed by DSC (at 10° C./min from 30° C. up to 400° C.) and the pH (aq. 0.5%), and the moisture content by KF were also measured. The TGA was performed on the HCl, maleate, tosylate and HBr salts.

[2] = Comparative forced degradation of bupropion HCl and HBr API salts, closed glass bottle, 40° C./75% RH, HPLC; assay type: physicochemical; conditions: for % Assay / % Impurities 3-CBZ / % Impurities 20U78/dilu / % Impurities 827U76 / % Impurities 852U77 / % Impurities Total unknown / Total (%) impurities: closed glass bottle
Procedure: Further stability tests were performed by directly comparing bupropion HBr and bupropion HCl salts in forced degradation studies. […] At specified times, the material in the bottles was analyzed for the presence of degradation products and % potency (% assay).
The samples were exposed to the above conditions in a closed bottle for few days, and then subjected to HPLC analysis. The amount of the main degradation products present after treatment were compared with those amounts that were present initially.
The samples were analysed after 14 and 24 days (study-1) and 10 days (study II), in a quantitative manner by direct treatment of the whole content of the bottle as per the HPLC standard test method (P05.901.10).

[3] = pH of 0.5% aqueous solution of bupropion salts; assay type: physicochemical
Procedure: as §1, §2

[4] = Forced degradation of bupropion HBr and HCl in the presence of excipients at 55° C., 55° C./100% RH, 100° C. and 105° C.; assay type: physicochemical; conditions: 24 and 48 hours at 55° C., 105 degrees C., hydrobromide
Procedure: Forced degradation studies were also performed on bupropion HBr and bupropion HCl API's in the presence of standard excipients used in pharmaceutical formulations.
Further forced degradation studies were carried out at 55° C., at 55° C. and 100% relative humidity, at 100° C., and at 105° C. on both the HCl and HBr Bupropion salts in the presence of excipients. The average weight of the excipients and the weight of the active pharmaceutical ingredient (API) present in the samples are presented in Table 72. […] FIG. 53 is a graph showing the loss of each salt over time in a TGA experiment at 100° C.

[5] = Release of bupropion base from bupropion HCl and HBr; assay type: physicochemical
Procedure: It was previously observed that when 150 mg of bupropion HCl was tested for its release of bupropion, the base value that was released was 130 mg.

[6] = Dynamic Vapour Sorption (DVS) hygroscopicity of bupropion HBr; assay type: physicochemical; conditions: for DVS: water uptake / hygroscopicity (words): range 0% RH-90% RH, hydrobromide
[7] = TGA experiment at 100° C., loss of API salt over time; assay type: physicochemical; conditions: TGA at 100° C.
Procedure: The average weight of the excipients and the weight of the active pharmaceutical ingredient (API) present in the samples are presented in Table 72. […] FIG. 53 is a graph showing the loss of each salt over time in a TGA experiment at 100° C.

[8] = Forced degradation stability study of bupropion salts spiked with placebo/excipients, closed vials, 40° C./75% RH, HPLC assay and impurities
Procedure: The stability of the salts was evaluated based on the formation of the main degradation products (see below) as determined by HPLC analysis and the % potency (or assay) of the API, after specific time periods in the stability chamber. The effect of the addition of solvents, such as water, ethanol and isopropyl alcohol, was also studied.
The samples of each salt and the spiked salts with the bupropion HCl XL were prepared under the conditions mentioned in Table 4. […] The stability of the bupropion salts were evaluated based on the formation of the main degradation product 3-chlorobenzoic acid (3-CBZ) and the intermediate degradation products diketone 827U76 and the ketohydroxyl derivatives (20U78 and 852U77) (Scheme 2).
As mentioned above, the stability samples were prepared in 2 mL vials and used directly for assay and impurity analysis by HPLC without further sample preparations to minimize errors.

[9] = Solubility of Bupropion HBr vs Bupropion HCl in water, EtOH, IPA; assay type: physicochemical
[10] = repeat study, 40 C/75% RH, 10 Days, Lot# STN07491, hydrobromide
[11] = repeat study, 40 C/75% RH, 10 Days, Lot# STN07492, hydrobromide
[12] = repeat study, 40 C/75% RH, Initial, Lot# STN07491, hydrobromide
[13] = repeat study, 40 C/75% RH, Initial, Lot# STN07492, hydrobromide
[14] = In IPA/EtOH, 32 days, closed vials
[15] = In water, 32 days, closed vials
[16] = salt plus excipients, 20 days, closed vial, 40° C./75% RH

## Br.CC(NC(C)(C)C)C(=O)c1cccc(Cl)c1 (stereo not shown) [Bupropion HBr, bupropion hydrobromide]
[1]; Table 3, supplier API
  Moisture Content (KF): 0.00%
[1]; original API salts
  KF (moisture content), Original (Initial APIs): 0.00%
[2]; closed bottles, 40 degrees C. and 75% relative humidity
  Impurities and % potency compared to the HCl salt: amount of impurities was consistently lower and the % potency was consistently higher
[2]; 40° C./75% RH, 14-Days
  % Assay: 98.8%
  % Impurities 3-CBZ: 0.015%
  % Impurities 20U78/dilu: 0.048%
  % Impurities 827U76: 0.012%
  % Impurities 852U77: 0.058%
  % Impurities Total unknown: 0.105%
  Total (%) impurities: 0.23%
[2]; 40° C./75% RH, 24 Days
  % Assay: 99.5%
  % Impurities 3-CBZ: 0.022%
  % Impurities 20U78/dilu: 0.038%
  % Impurities 827U76: 0.016%
  % Impurities 852U77: 0.052%
  % Impurities Total unknown: 0.104%
  Total (%) impurities: 0.23%
[2]; 40° C./75% RH, Initial
  % Assay: 99.6%
  % Impurities 3-CBZ: 0.007%
  % Impurities 20U78/dilu: 0.044%
  % Impurities 852U77: 0.009%
  % Impurities Total unknown: 0.098%
  Total (%) impurities: 0.16%
[2]; repeat study, 40 C/75% RH, 10 Days
  % Impurities 827U76: 0.039%
[2]; [10]
  % Assay: 98.2%
  % Impurities 3-CBZ: 0.070%
  % Impurities 20U78/dilu: 0.051%
  % Impurities 852U77: 0.125%
  % Impurities Total unknown: 0.129%
  Total (%) impurities: 0.42%
[2]; [11]
  % Assay: 99.2%
  % Impurities 3-CBZ: 0.031%
  % Impurities 20U78/dilu: 0.044%
  % Impurities 852U77: 0.055%
  % Impurities Total unknown: 0.15%
  Total (%) impurities: 0.24%
[2]; repeat study, 40 C/75% RH, Initial
  % Impurities 20U78/dilu: 0.041%
[2]; [12]
  % Assay: 99.5%
  % Impurities 3-CBZ: 0.011%
  % Impurities Total unknown: 0.129%
  Total (%) impurities: 0.17%
[2]; [13]
  % Assay: 99.6%
  % Impurities 3-CBZ: 0.007%
  % Impurities Total unknown: 0.194%
  Total (%) impurities: 0.23%
[3]; 0.5% aqueous solution, original API salts
  pH (aq. 0.5%), Original (Initial APIs): 5.92
[3]; Table 3, supplier API
  pH (aq. 0.5%): 5.92
[4]; listed as HBr
  Degradation in the presence of excipients (formation of impurities, words): lowest amount of degradation
[4]; listed as bupropion HBr
  Degradation in the presence of excipients (formation of impurities, words): significant improvements in stability compared to bupropion HCl
[5]; 150 mg of the salt tested
  Base value of bupropion released: 112 mg
[5]; 174 mg of the salt tested
  Base value of bupropion released: 130 mg
[6]; at 90% RH
  DVS: maximum water uptake: 0.14 % weight
[6]; listed as HBr
  DVS: water uptake / hygroscopicity (words): non-hygroscopic
[6]; listed as bupropion HBr
  DVS: water uptake / hygroscopicity (words): no significant water uptake
[7]
  Disproportionation of the salt at elevated temperature: did not occur
[8]; DS and excipients spiked with IPA & EtOH, 32 days, closed vials, 40° C.
  Order of stability (assay) with IPA & EtOH: HCl>HBr>tosylate>maleate>fumarate
[8]; DS and excipients spiked with water, 32 days, closed vials, 40° C.
  Order of stability (assay) with water: tosylate>maleate>HCl>HBr>fumarate
[8]; DS and spiked DS, 40° C./75% RH
  Stability in the forced degradation stability studies, overall: superior stability in a closed container
[8]; [14]
  Content of impurity 3-CBZ, order of salts: maleate > HBr > HCl > Fumarate
  Content of impurity 852U77, order of salts: fumarate > HBr ≈ HCl ≈ maleate ≈ tosylate
  Total imp., order of salts: fumarate > maleate > HBr > HCl > tosylate
[8]; [15]
  Content of impurity 3-CBZ, order of salts: HCl > HBr ≈ maleate ≈ fumarate
  Content of impurity 852U77, order of salts: fumarate > HBr > maleate > HCl
  Total imp., order of salts: fumarate > HBr > HCl > tosylate > maleate
[8]; open and closed vials, 40 degrees C./75% RH, 'after at least 3 months or after at least 6 months'
  Degradation products and retained activity compared with all salts tested: least amount of degradation products
[8]; [16]
  Impurities (3-CBZ, 852U77 & total) compared to the other salts: lowest
  Order of stability (assay, % potency): HBr>HCl=tosylate>fumarate>maleate
[9]; EtOH
  Solubility, EtOH: 92 mg/mL
[9]; IPA
  Solubility, IPA: 12 mg/mL
[9]; water
  Solubility, Water: 143 mg/mL

Source: US7884136B2, “Modified-release formulations of a bupropion salt” (Biovail Laboratories International S.R.L., priority 2005, dated 2011)
